pIC50: −log10 of the molar value.
What was measured:
Format in all cases: biochemical
mTOR = target: T1, mTOR (Homo sapiens, UniProt P42345); assay: mTOR kinase inhibition assay (radiometric or LanthaScreen TR-FRET); conditions: read-out: mTORC IC50
T1 construct: purchased Invitrogen

PI3K α (p110α/p85α) = target: T2, PI3K α (p110α/p85α) (Homo sapiens, UniProt P42336); assay: PI 3-Kinase (human) HTRF assay, PI3K α; conditions: read-out: PI3K α IC50
T2 construct: purchased Upstate / Millipore Corporation

PI3K β (p110β/p85α) = target: T3, PI3K β (p110β/p85α) (Homo sapiens, UniProt P42338); assay: PI 3-Kinase (human) HTRF assay, PI3K β; conditions: read-out: PI3K β IC50
T3 construct: purchased Upstate / Millipore Corporation

PI3K γ (p110γ) = target: T4, PI3K γ (p110γ) (Homo sapiens, UniProt P48736); assay: PI 3-Kinase (human) HTRF assay, PI3K γ; conditions: read-out: PI3K γ IC50
T4 construct: purchased Upstate / Millipore Corporation
Description: Briefly, the assay is a time resolved FRET assay that indirectly measures PIP3 product formed by the activity of a PI3-K. The kinase reaction is performed in a microtiter plate (e.g., a 384 well microtiter plate). The total reaction volume is approximately 20 ul per well. In the first step, each well receives 2 ul of test compound in 20% dimethylsulphoxide resulting in a 2% DMSO final concentration. […] The plate is sealed and incubated for 15 minutes at room temperature. […] The plate is sealed and incubated for 1 hour at room temperature. The reaction is stopped by adding 5 ul of Stop Solution per well and then 5 ul of Detection Mix is added per well. The plate is sealed, incubated for 1 hour at room temperature, and then read on an appropriate plate reader. Data is analyzed and IC50s are generated using GraphPad Prism 5.

PI3K δ = target: T5, PI3K δ (Homo sapiens, UniProt O00329); assay: PI 3-Kinase (human) HTRF assay, PI3K δ; conditions: read-out: PI3K δ IC50
T5 construct: purchased Upstate / Millipore Corporation
T5 sequence (O00329 whole entry): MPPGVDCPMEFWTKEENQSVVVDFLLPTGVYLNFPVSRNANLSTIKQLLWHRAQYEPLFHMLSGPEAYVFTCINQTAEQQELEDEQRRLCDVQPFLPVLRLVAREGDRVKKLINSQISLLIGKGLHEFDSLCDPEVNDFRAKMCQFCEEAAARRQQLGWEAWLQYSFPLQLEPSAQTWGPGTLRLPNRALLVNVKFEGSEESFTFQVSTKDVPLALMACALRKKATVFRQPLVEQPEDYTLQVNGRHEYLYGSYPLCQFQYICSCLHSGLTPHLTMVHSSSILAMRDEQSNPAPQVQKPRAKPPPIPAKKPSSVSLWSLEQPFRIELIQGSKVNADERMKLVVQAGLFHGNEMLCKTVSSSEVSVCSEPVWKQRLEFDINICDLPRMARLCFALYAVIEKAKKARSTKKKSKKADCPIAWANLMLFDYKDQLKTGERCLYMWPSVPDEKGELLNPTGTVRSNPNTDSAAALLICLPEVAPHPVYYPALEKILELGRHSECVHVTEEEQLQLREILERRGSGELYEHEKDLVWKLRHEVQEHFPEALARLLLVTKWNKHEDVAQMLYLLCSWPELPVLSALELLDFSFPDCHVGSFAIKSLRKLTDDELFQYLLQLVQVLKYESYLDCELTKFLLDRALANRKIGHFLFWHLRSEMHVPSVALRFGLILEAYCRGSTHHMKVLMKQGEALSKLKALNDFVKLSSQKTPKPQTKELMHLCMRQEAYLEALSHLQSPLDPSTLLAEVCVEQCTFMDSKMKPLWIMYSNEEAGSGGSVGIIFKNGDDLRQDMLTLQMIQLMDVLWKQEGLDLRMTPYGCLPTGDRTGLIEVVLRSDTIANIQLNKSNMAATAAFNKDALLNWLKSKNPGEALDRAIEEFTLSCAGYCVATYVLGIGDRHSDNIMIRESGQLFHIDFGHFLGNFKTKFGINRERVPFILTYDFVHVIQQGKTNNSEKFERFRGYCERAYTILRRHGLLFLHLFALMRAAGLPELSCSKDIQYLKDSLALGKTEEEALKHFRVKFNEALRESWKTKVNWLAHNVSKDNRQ
T5 sequence (P27986 whole entry partner): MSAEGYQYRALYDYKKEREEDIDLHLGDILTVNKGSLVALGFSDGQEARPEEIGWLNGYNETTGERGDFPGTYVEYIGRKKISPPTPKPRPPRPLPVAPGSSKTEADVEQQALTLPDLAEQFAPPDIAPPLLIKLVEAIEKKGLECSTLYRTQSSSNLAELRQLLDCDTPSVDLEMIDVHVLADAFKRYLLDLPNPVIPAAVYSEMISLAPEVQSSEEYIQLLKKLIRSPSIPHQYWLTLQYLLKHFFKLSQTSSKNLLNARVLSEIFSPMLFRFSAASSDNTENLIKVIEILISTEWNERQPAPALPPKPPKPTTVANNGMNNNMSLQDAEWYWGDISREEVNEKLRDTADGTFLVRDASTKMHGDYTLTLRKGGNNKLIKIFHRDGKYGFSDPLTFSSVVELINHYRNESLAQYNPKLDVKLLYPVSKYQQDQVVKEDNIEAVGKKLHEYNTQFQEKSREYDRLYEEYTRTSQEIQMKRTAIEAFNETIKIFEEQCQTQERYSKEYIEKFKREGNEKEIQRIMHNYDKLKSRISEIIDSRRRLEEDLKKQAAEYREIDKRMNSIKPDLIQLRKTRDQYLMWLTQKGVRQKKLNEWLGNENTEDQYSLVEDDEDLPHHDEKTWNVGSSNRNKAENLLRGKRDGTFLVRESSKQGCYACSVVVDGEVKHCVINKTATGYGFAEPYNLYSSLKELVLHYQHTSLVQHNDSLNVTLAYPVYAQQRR

T2 sequence (P42336 whole entry): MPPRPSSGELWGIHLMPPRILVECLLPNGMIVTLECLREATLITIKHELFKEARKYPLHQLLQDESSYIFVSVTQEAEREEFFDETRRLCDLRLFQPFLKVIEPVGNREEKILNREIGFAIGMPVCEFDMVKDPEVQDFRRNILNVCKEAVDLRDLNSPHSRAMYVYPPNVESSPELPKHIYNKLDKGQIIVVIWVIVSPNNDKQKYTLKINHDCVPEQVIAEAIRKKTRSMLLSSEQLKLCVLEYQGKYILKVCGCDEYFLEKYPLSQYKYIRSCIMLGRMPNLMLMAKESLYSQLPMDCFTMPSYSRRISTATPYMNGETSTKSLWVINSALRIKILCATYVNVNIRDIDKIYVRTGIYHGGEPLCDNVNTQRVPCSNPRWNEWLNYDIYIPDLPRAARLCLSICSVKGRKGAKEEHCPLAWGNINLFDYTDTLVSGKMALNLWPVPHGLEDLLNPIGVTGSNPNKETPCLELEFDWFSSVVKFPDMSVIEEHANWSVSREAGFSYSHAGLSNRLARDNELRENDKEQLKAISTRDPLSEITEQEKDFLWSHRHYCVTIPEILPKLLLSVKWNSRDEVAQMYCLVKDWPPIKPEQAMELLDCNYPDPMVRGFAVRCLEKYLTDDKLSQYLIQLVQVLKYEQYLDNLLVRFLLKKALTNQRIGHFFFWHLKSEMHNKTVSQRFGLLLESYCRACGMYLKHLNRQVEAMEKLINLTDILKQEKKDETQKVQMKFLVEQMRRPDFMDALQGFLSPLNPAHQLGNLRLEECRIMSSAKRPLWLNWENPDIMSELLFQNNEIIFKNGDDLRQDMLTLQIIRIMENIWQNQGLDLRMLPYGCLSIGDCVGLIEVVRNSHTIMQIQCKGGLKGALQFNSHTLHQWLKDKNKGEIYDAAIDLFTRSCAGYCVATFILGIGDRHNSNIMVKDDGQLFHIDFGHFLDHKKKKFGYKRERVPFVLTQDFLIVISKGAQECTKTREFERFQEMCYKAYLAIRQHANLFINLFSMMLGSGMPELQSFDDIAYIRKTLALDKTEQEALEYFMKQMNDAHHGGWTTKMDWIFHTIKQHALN
T2 sequence (P27986 whole entry partner): as the sequence (P27986 whole entry partner) above
T4 sequence (P48736 whole entry): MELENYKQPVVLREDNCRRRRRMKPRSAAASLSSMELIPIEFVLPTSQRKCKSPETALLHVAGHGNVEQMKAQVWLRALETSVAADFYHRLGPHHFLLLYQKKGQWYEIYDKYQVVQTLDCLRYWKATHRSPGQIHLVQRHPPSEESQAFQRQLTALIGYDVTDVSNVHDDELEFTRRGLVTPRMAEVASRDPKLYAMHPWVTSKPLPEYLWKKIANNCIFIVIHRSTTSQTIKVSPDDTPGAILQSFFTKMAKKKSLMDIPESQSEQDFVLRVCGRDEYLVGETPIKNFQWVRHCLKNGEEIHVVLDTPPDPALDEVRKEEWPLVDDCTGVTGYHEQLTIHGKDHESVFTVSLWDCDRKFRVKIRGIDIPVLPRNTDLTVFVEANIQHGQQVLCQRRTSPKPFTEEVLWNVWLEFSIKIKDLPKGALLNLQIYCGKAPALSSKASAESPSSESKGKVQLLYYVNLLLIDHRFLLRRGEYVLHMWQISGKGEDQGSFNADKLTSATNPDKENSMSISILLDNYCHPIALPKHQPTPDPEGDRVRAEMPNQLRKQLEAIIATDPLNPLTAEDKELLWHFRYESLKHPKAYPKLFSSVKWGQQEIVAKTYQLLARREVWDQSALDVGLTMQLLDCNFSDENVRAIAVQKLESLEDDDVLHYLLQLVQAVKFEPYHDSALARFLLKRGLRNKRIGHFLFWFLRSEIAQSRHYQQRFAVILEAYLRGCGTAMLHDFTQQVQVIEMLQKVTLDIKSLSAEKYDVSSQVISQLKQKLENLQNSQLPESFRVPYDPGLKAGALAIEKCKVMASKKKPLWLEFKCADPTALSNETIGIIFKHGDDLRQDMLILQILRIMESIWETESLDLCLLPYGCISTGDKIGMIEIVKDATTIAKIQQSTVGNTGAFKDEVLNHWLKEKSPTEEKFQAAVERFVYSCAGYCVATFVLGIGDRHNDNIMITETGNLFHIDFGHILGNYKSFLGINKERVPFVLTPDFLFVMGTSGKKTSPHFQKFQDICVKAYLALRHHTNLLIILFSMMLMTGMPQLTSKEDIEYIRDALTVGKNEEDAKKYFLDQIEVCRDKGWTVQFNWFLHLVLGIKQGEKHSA
T3 sequence (P42338 whole entry): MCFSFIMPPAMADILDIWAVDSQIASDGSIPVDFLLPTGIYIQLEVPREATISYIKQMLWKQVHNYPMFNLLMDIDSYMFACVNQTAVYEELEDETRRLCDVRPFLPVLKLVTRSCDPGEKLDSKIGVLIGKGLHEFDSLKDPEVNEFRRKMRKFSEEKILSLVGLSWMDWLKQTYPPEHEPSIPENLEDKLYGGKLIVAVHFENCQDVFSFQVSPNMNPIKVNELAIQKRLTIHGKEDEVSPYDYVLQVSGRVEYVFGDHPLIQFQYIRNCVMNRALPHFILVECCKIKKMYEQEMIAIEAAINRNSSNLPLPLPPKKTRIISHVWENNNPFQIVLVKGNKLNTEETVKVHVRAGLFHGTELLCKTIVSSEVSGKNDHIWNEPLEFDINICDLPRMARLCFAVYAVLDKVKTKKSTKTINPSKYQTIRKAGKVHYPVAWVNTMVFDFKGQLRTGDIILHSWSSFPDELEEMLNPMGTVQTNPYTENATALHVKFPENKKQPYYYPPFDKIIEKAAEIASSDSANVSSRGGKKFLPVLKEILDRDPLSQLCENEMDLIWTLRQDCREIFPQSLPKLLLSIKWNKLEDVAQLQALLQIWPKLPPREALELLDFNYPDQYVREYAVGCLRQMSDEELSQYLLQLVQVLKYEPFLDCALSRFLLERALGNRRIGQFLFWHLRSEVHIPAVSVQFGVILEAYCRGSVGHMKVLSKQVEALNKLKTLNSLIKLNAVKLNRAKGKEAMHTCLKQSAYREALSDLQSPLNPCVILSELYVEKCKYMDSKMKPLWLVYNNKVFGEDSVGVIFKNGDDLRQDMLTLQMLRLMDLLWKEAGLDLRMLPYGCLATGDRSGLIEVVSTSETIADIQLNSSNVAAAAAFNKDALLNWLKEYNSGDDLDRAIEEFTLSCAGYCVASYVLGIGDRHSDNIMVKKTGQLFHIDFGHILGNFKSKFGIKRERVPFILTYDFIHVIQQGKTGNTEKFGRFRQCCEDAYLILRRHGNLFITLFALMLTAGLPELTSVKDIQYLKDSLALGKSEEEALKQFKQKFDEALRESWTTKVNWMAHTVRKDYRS
T3 sequence (P27986 whole entry partner): as the sequence (P27986 whole entry partner) above

Row | SMILES | pIC50 (mTOR) | pIC50 (PI3K α (p110α/p85α)) | pIC50 (PI3K β (p110β/p85α)) | pIC50 (PI3K γ (p110γ)) | pIC50 (PI3K δ)
1 | Nc1nc2cc(-c3ccc4ncc(-c5cccnc5)nc4c3)ccc2o1 [Compound 76] | > 5.00 | > 7.00 | < 5.00 | > 6.00 | < 5.00
2 | N#Cc1cnc2ccc(-c3ccc4oc(N)nc4c3)cc2c1 [Compound 93] | > 5.00 | > 6.00 | < 5.00 | > 6.00 | < 5.00
3 | CCOC(=O)N1CCN(c2cnc3ccc(-c4ccc5oc(N)nc5c4)cc3n2)CC1 [Compound 119] | > 5.00 | > 7.00 | > 5.00 | > 5.00 | > 5.00
4 | Nc1nc2cc(-c3ccc4ncc(N5CCN(C(=O)[C@@H]6CCCN6)CC5)nc4c3)ccc2o1 [Compound 121] | < 5.00 | > 7.00 | > 7.00 | > 7.00 | > 7.00
5 | CS(=O)(=O)N1CCN(Cc2cc3nc(-c4ccc5oc(N)nc5c4)nc(N4CCOCC4)c3s2)CC1 [Compound 129] | > 6.00 | > 7.00 | > 6.00 | > 7.00 | > 6.00
6 | Nc1nc2cc(-c3ccc4ncc(NCCN5CCOCC5)nc4c3)ccc2o1 [Compound 133] | < 5.00 | > 7.00 | > 6.00 | > 6.00 | > 6.00
7 | Nc1nc2cc(-c3ccc4ncc(N5CCNC(=O)C5)nc4c3)ccc2o1 [Compound 135] | < 5.00 | > 7.00 | > 6.00 | > 6.00 | < 5.00
8 | CN(C)CC(=O)N1CCN(c2cnc3ccc(-c4ccc5oc(N)nc5c4)cc3n2)CC1 [Compound 139] | < 5.00 | > 7.00 | > 6.00 | > 6.00 | > 6.00
9 | CN1CC(C(=O)N2CCN(c3cnc4ccc(-c5ccc6oc(N)nc6c5)cc4n3)CC2)C1 [Compound 156] | < 5.00 | > 7.00 | > 6.00 | > 6.00 | > 6.00
10 | Nc1nc2cc(-c3ccc4ncc(N5CC(C(=O)N6CCOCC6)C5)nc4c3)ccc2o1 [Compound 169] | > 5.00 | > 7.00 | > 6.00 | > 6.00 | > 6.00
11 | CN1CCN(C(=O)C2CN(c3cnc4ccc(-c5ccc6oc(N)nc6c5)cc4n3)C2)CC1 [Compound 170] | > 5.00 | > 7.00 | > 6.00 | > 5.00 | > 6.00
12 | Nc1nc2cc(-c3ccc4ncc(N5CCC(N6CCOCC6)CC5)nc4c3)ccc2o1 [Compound 171] | < 5.00 | > 7.00 | > 6.00 | > 6.00 | > 6.00
13 | Nc1ncc(-c2ccc3oc(N)nc3c2)cn1 [Compound 233] | < 5.00 | < 5.00 | < 5.00 | > 5.00 | < 5.00
14 | CC(=O)Nc1cn2cc(-c3ccc4oc(N)nc4c3)ccc2n1 [Compound 234] | > 6.00 | > 7.00 | > 6.00 | > 7.00 | > 7.00
15 | CC(=O)Nc1ncc(-c2ccc3oc(N)nc3c2)s1 [Compound 235] | > 5.00 | > 5.00 | < 5.00 | > 5.00 | > 5.00
16 | Nc1nc2cc(-c3ccc4ncc(N5CC[C@H](O)C5)nc4c3)ccc2o1 [Compound 262] | > 5.00 | > 7.00 | > 6.00 | > 6.00 | < 5.00
17 | C[C@@H]1CN(C(=O)C2CN(c3cnc4ccc(-c5ccc6oc(N)nc6c5)cc4n3)C2)CCN1 [Compound 267] | > 5.00 | > 7.00 | > 5.00 | > 6.00 | > 6.00

Row | SMILES | pIC50 (mTOR) | pIC50 (PI3K α (p110α/p85α)) | pIC50 (PI3K β (p110β/p85α)) | pIC50 (PI3K γ (p110γ)) | pIC50 (PI3K δ)
18 | Nc1nc2cc(-c3ccc4ncc(N5CC(C(=O)N6CCN(C7CC7)CC6)C5)nc4c3)ccc2o1 [Compound 276] | > 5.00 | > 7.00 | > 5.00 | > 6.00 | > 6.00
19 | CN1CCN(c2cnc3ccc(-c4ccc5oc(N)nc5c4)cc3n2)CC1=O [Compound 277] | > 5.00 | > 7.00 | > 6.00 | > 6.00 | > 5.00
20 | Nc1nc2cc(-c3ccc4ncc(N5CCN(C(=O)[C@@H](N)CO)CC5)nc4c3)ccc2o1 [Compound 298] | > 5.00 | > 7.00 | > 6.00 | > 5.00 | > 5.00
21 | CN1CCN(C2CN(C(=O)c3cnc4ccc(-c5ccc6oc(N)nc6c5)cn34)C2)CC1 [Compound 303] | > 5.00 | > 7.00 | < 5.00 | < 5.00 | > 5.00
22 | Nc1nc2cc(-c3ccc4ncc(N5CC(N6CCN(C7CC7)CC6)C5)nc4c3)ccc2o1 [Compound 313] | > 5.00 | > 7.00 | > 5.00 | > 5.00 | > 5.00
23 | Nc1nc2cc(-c3ccc4ncc(N5CC(N6CC[C@@H](O)C6)C5)nc4c3)ccc2o1 [Compound 315] | > 6.00 | > 7.00 | > 5.00 | > 5.00 | > 5.00
24 | Nc1nc2cc(-c3ccc4ncc(N5CC(n6cccn6)C5)nc4c3)ccc2o1 [Compound 318] | > 6.00 | > 7.00 | > 5.00 | > 6.00 | < 5.00
25 | Cc1ccn(C2CN(c3cnc4ccc(-c5ccc6oc(N)nc6c5)cc4n3)C2)n1 [Compound 320] | < 5.00 | > 7.00 | > 5.00 | > 5.00 | > 5.00
26 | CN1CCN(C2CN(c3cnc4ccc(-c5ccc6oc(N)nc6c5)cc4n3)C2)CC1=O [Compound 323] | < 5.00 | > 7.00 | > 5.00 | > 6.00 | > 5.00
27 | CCN(CC)C1CN(c2cnc3ccc(-c4ccc5oc(N)nc5c4)cc3n2)C1 [Compound 324] | < 5.00 | > 7.00 | > 5.00 | > 6.00 | > 5.00
28 | Nc1nc2cc(-c3ccc4ncc(N5CC(N6CCNCC6)C5)nc4c3)ccc2o1 [Compound 326] | < 5.00 | > 7.00 | > 6.00 | > 6.00 | > 6.00
29 | CC(=O)N1CCN(C2CN(c3cnc4ccc(-c5ccc6oc(N)nc6c5)cc4n3)C2)CC1 [Compound 327] | < 5.00 | > 7.00 | > 5.00 | > 6.00 | > 6.00
30 | CS(=O)(=O)N1CCN(C2CN(c3cnc4ccc(-c5ccc6oc(N)nc6c5)cc4n3)C2)CC1 [Compound 328] | < 5.00 | > 7.00 | > 5.00 | > 5.00 | > 5.00
31 | CCN1CCN(C2CN(c3cnc4ccc(-c5ccc6oc(N)nc6c5)cc4n3)C2)CC1 [Compound 329] | < 5.00 | > 7.00 | > 6.00 | > 5.00 | > 6.00
32 | COC(=O)N1CCC(n2ncc3c(N4CCOCC4)nc(-c4ccc5oc(N)nc5c4)nc32)CC1 [Compound 330] | > 6.00 | > 6.00 | > 5.00 | < 5.00 | < 5.00
33 | CC(C)N1CCN(C2CN(c3cnc4ccc(-c5ccc6oc(N)nc6c5)cc4n3)C2)CC1 [Compound 331] | < 5.00 | > 7.00 | > 5.00 | > 5.00 | > 5.00
